Key:
Assay type in all cases: in vivo, C57BL/6 mice
[1] = system: α-SMA; assay: Immunohistochemical staining of renal section for α-SMA in UUO model; conditions: UUO mice; 30 mg/kg daily i.p.
Method: (§1) Male 8-week-old C57BL/6 mice were purchased form National Laboratory Animal Breeding and Research Center (Taipei, Taiwan) and maintained at the animal center of the National Defense Medical Center (Taipei, Taiwan). All animal experiments were performed with the approval of the Institutional Animal Care and Use Committee of The National Defense Medical Center, Taiwan, and were consistent with the National Institutes of Health Guide for the Care and Use of Laboratory Animals.
(§2) Mice were first anesthetized with sodium pentobarbital (50 mg/kg, i.p.). After a left flank incision was taken, the left ureter was exposed, ligated with 6-0 silk sutures at two points, and cut between the two ligatures. Lastly, the peritoneal membrane and skin were sutured. Sham surgery was performed as control by following all steps of UUO-procedure except ligation and cut of ureter. (Xiao et al. Adenosine A2A receptor: a target for regulating renal interstitial fibrosis in obstructive nephropathy, PLoS One. 2013 Apr. 9; 8 (4):e60173).
(§3) Briefly, all mice received preoperative analgesia (subcutaneous injection of […] buprenorphin (Temgesic, Shering-Plough)) and the right ureter was subsequently ligated with 6.0 silk through a small abdominal incision under 2.0% isoflurane-induced anesthesia. […]

[2] = system: MCP-1; assay: ELISA of MCP-1 in pelvis urine in UUO model
Method: as §1
as §2, with “(4):e60173). […]” for “(4):e60173).”
(§4) Urine samples are collected from calyx and pelvis by 29G insulin syringe. […] MCP-1, TNF-α, and IL-1β are then detected by ELISA following instruction manual (eBioscience and R&D). […]

[3] = system: collagen IV; assay: Immunohistochemical staining of renal section for collagen IV in UUO model; conditions: UUO mice; 30 mg/kg daily i.p.
Method: as §1, §2, §3

[4] = system: CD3+ T cells; assay: Immunohistochemical staining of renal section for CD3+ (T cell infiltration) in UUO model; conditions: UUO mice; 30 mg/kg daily i.p.
Method: as §1, §2, §3

[5] = system: F4/80+ monocytes/macrophages; assay: Immunohistochemical staining of renal section for F4/80 (macrophage infiltration) in UUO model; conditions: UUO mice; 30 mg/kg daily i.p.
Method: as §1, §2, §3

[6] = system: collagen III; assay: Immunohistochemical staining of renal section for collagen III in UUO model; conditions: UUO mice; 30 mg/kg daily i.p.
Method: as §1, §2, §3

[7] = system: NF-κB; assay: Immunohistochemical staining of renal section for NF-κB in UUO model; conditions: UUO mice; 30 mg/kg daily i.p.
Method: as §1, §2, §3

[8] = system: fibrosis tissue in the UUO interstitial area; assay: Masson's trichrome staining of renal section in UUO model; conditions: UUO mice; 30 mg/kg daily i.p.
Method: as §1, §2, §3

[9] = system: bone marrow cells; assay: Stem cells and hematopoietic stem cell activation in bone marrow cells by flow cytometry in UUO model; conditions: within three groups (sham, disease control, LCHK168)
Method: as §1, §2, §3

[10] = system: UUO kidney; assay: Renal histopathology evaluation by H&E staining in UUO model; conditions: 30 mg/kg daily i.p.
Method: as §1, §2
Briefly, all mice received preoperative analgesia (subcutaneous injection of […] buprenorphin (Temgesic, Shering-Plough)) and the right ureter was subsequently ligated with 6.0 silk through a small abdominal incision under 2.0% isoflurane-induced anesthesia. The abdomen was closed in two layers and mice were allowed to recover from surgery for 12 hours at 28° C. in a ventilated stove. Mice were sacrificed 7 or 14 days after surgery (Pulskens, et al. Nlrp3 prevents early renal interstitial edema and vascular permeability in unilateral ureteral obstruction, PLoS One. 2014 Jan. 15; 9 (1):e85775).
Ginsenoside M1, 20-O-β-D-glucopyranosyl-20(S)-protopanaxadiol (named LCHK168 below), was prepared by methods known in the art, such as those described in Taiwan Patent Application No. 094116005 (I280982) and U.S. Pat. No. 7,932,057. LCHK168 was dissolved in 3% cremophore (Sigma-Aldrich). Starting from one day before UUO operation, mice were given a daily dose of LCHK168 (30 mg/kg) by intraperitoneal injection till sacrifice.
Paraffin-embedded kidney tissues were sectioned and stained with Masson's trichrome and hematoxylin and eosin (H&E) using standard protocols. For histopathology, the tissues were fixed in 10% buffered formalin and embedded in paraffin, and then sections (3 μm) were prepared and stained with hematoxylin and eosin (H&E).
Sections all are examed after mounting. The methods of semi-quantitative analysis are according to the degree of inflammation and fibrosis on renal tubulointerstitial whereas and randomly selected 20 fields randomly for scoring. […]

[11] = system: proliferating cell nuclear antigen (PCNA); assay: Immunohistochemical staining of renal section for PCNA in UUO model; conditions: UUO mice; 30 mg/kg daily i.p.
Method: as §1, §2, §3

[12] = system: TNF-α; assay: ELISA of TNF-α in pelvis urine in UUO model
Method: as §1
as §2, with “(4):e60173). […]” for “(4):e60173).”
as §4

[13] = system: splenocytes; assay: B cells and T cells activation in splenocytes by flow cytometry in UUO model; conditions: within three groups (sham, disease control, LCHK168)
Method: as §1, §2, §3

[14] = system: IL-1β; assay: ELISA of IL-1β in pelvis urine in UUO model
Method: as §1
as §2, with “(4):e60173). […]” for “(4):e60173).”
as §4

[15] = system: apoptotic cells in UUO renal interstitial area; assay: TUNEL staining of renal section for apoptotic cells in UUO model; conditions: UUO mice; 30 mg/kg daily i.p.
Method: as §1, §2, §3

[16] = day 7, compare to normal control group
[17] = 7 days of UUO, vs disease control mice

Compound: CC(C)=CCC[C@](C)(O[C@@H]1O[C@H](CO)[C@@H](O)[C@H](O)[C@H]1O)[C@H]1CC[C@]2(C)[C@@H]1[C@H](O)C[C@@H]1[C@@]3(C)CC[C@H](O)C(C)(C)[C@@H]3CC[C@]12C [LCHK168, 20-O-β-D-glucopyranosyl-20(S)-protopanaxadiol]
- α-SMA expression in UUO interstitial area [1]: decreased
- MCP-1 in renal pelvis urine [2, 16]: higher
- MCP-1 in renal pelvis urine ([2]; day 14, compare to UUO group): significant decreased
- collagen IV expression in UUO interstitial area [3]: decreased
- expression of CD3+ (T cells) in renal section [4]: decreased
- expression of F4/80 (macrophage) in renal section [5]: decreased
- collagen III expression in UUO interstitial area [6]: decreased
- NF-κB expression in renal section [7]: inhibited
- fibrosis tissue in the UUO interstitial area (Masson's trichrom staining) [8]: decreased
- percentage of CD34+ (stem cell) cells in bone marrow cells [9]: no significant change
- percentage of Stem-cell antigen-1-positive cells (hematopoietic stem cell) in bone marrow cells [9]: no significant change
- mononuclear leukocyte infiltration in the interstitial area (H&E) [10, 17]: inhibited
- tubular dilation in the interstitial area (H&E) [10, 17]: inhibited
- fibrosis (H&E) ([10]; 14 days of UUO): significantly inhibited
- tubular atrophy (H&E) ([10]; 14 days of UUO): significantly inhibited
- PCNA expression in renal section [11]: decrease
- TNF-α in renal pelvis urine [12, 16]: higher
- TNF-α in renal pelvis urine ([12]; day 14, compare to UUO group): significant decreased
- percentage of CD3+CD69+ cells in splenocytes [13]: no significant change
- percentage of CD19+CD69+ cells in splenocytes [13]: no significant change
- IL-1β in renal pelvis urine [14, 16]: higher
- IL-1β in renal pelvis urine ([14]; day 14, compare to UUO group): significant decreased
- apoptotic cells (TUNNEL staining) in UUO renal interstitial area [15]: decrease
